ChEMBL document CHEMBL1201862, “PubChem BioAssay data set” (2004)
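Grown in 96-well plates, cells were treated for 48 hours with each compound at five concentrations. Insufficient inhibition: endpoint recorded as highest concentration tested. At the GI50, growth is halved.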 The source made the active and inactive calls. No stated cut-off is given here; in the data, active = GI50 up to about 1.1 µM and inactive = higher.

Tests used:
Assay in all cases: growth of human tumour cells (NCI), 48 h
[1] = system: KM12
[2] = system: RPMI-8226
[3] = system: DLD-1
[4] = system: NCI-H226
[5] = system: SW-620
[6] = system: CCRF-CEM
[7] = system: SR
[8] = system: A498
[9] = system: SNB-19
[10] = system: UACC-62
[11] = system: M19-MEL
[12] = system: HT-29
[13] = system: OVCAR-3
[14] = system: OVCAR-8
[15] = system: Malme-3M
[16] = system: M14
[17] = system: EKVX
[18] = system: SF-539
[19] = system: A549
[20] = system: KM-20L2
[21] = system: SNB-78
[22] = system: LXFL 529
[23] = system: U-251
[24] = system: HCC 2998
[25] = system: SN12C
[26] = system: NCI-H23
[27] = system: XF498
[28] = system: UACC-257
[29] = system: RXF 393
[30] = system: HCT-116
[31] = system: HL-60
[32] = system: COLO 205
[33] = system: SNB-75
[34] = system: ACHN
[35] = system: DMS-273
[36] = system: 786-0
[37] = system: OVCAR-5
[38] = system: SK-OV-3
[39] = system: CAKI-1
[40] = system: HOP-62
[41] = system: HOP-18
[42] = system: NCI-H522
[43] = system: HOP-92
[44] = system: IGROV-1
[45] = system: SK-MEL-28
[46] = system: HCT-15
[47] = system: SF-295
[48] = system: K562
[49] = system: NCI-H460
[50] = system: LOX IMVI
[51] = system: UO-31
[52] = system: OVCAR-4
[53] = system: SK-MEL-5
[54] = system: SK-MEL-2
[55] = system: TK-10
[56] = system: DMS-114
[57] = system: SF-268
[58] = system: MOLT-4
[59] = system: RXF 631

Measured: GI50

CCOCN/C(N)=N\C#N
inactive: [1] > 100 µM | [2] > 100 µM | [3] > 100 µM | [4] > 100 µM | [5] 18.3 µM | [6] > 100 µM | [7] 36.6 µM | [8] > 100 µM | [9] > 100 µM | [10] > 100 µM | [11] > 100 µM | [12] > 100 µM | [13] > 100 µM | [14] > 100 µM | [15] > 100 µM | [16] > 100 µM | [17] > 100 µM | [18] > 100 µM | [19] > 100 µM | [20] 89.1 µM | [21] > 100 µM | [22] > 100 µM | [23] > 100 µM | [24] > 100 µM | [25] > 100 µM | [26] > 100 µM | [27] > 100 µM | [28] > 100 µM | [29] 61.8 µM | [30] > 100 µM | [31] > 100 µM | [32] > 100 µM | [33] > 100 µM | [34] > 100 µM | [35] > 100 µM | [36] 23.9 µM | [37] > 100 µM | [38] > 100 µM | [39] > 100 µM | [40] > 100 µM | [41] > 100 µM | [42] > 100 µM | [43] > 100 µM | [44] > 100 µM | [45] > 100 µM | [47] > 100 µM | [48] 66.1 µM | [49] > 100 µM | [50] 12.1 µM | [51] > 100 µM | [52] > 10 µM | [53] > 100 µM | [54] > 100 µM | [55] > 100 µM | [56] > 100 µM | [57] > 100 µM | [58] > 100 µM
20.5 µM: [46]

CC(C)(CN1CCOCC1)C(=O)/C=C/c1ccc(/C=C/C(=O)C(C)(C)CN2CCOCC2)cc1
0.297 µM: [46]
inactive: [1] 1.54 µM | [2] 2.7 µM | [4] 2.29 µM | [6] 1.36 µM | [8] 1.97 µM | [9] 1.55 µM | [10] 1.56 µM | [14] 1.45 µM | [15] 2.12 µM | [16] 1.69 µM | [17] 1.65 µM | [18] 2.07 µM | [19] 2.89 µM | [59] 1.36 µM | [20] 1.36 µM | [21] 1.21 µM | [23] 1.24 µM | [24] 1.83 µM | [25] 1.35 µM | [26] 1.58 µM | [27] 1.42 µM | [28] 1.99 µM | [29] 1.83 µM | [31] 1.45 µM | [32] 1.64 µM | [33] 1.94 µM | [34] 1.52 µM | [36] 2 µM | [37] 1.8 µM | [38] 3.85 µM | [39] 1.4 µM | [40] 2.46 µM | [43] 2.33 µM | [44] 2.09 µM | [45] 1.77 µM | [47] 2.21 µM | [49] 3.5 µM | [51] 1.75 µM | [53] 1.79 µM | [55] 1.86 µM | [57] 1.59 µM
active: [3] 0.338 µM | [5] 1.01 µM | [12] 0.467 µM | [13] 1.07 µM | [22] 1.1 µM | [30] 0.408 µM | [35] 0.457 µM | [42] 0.278 µM | [48] 0.239 µM | [50] 0.393 µM | [52] 0.942 µM | [56] 0.757 µM | [58] 0.281 µM
